Data reported in US9988343B2, “Inhibitors of histone deacetylase” (Dana-Farber Cancer Institute, Inc., priority 2013, dated 2018).
Like-named read-outs stand apart in the source and are kept apart here.

Columns and labels:
HDAC3 = HDAC3 (Homo sapiens, UniProt O15379); experiment: HDAC3 inhibitory activity (IC50); type: biochemical
Procedure: (§1) HDAC inhibitor compounds designed and synthesized in accordance with the present invention were tested for their inhibitor activity against several different HDAC isoforms.

RPMI8226 cells = experiment: Combination with bortezomib, MTT cytotoxicity, combination index; type: cell-based, human; details: for CI (combination index): RPMI8226, MTT, 24 h
Procedure: The combined effect of drugs was analyzed by isobologram analysis using the Compusyn software program (ComboSyn, Inc.); a combination index (CI)<1 is indicative of a synergistic effect.
All experiments were performed 3 times in quadruplicate. Data represent mean±SD (FIG. 7D).

pERK1/2 (Thr202/204) = experiment: Immunoblot of ERK phosphorylation; type: cell-based, human; details: MM.1S, 10 and 20 μM, 10 hours, then IL-6 10 ng/mL 4 hours (FIG. 6G)
HDAC6 [1] = target: T1, HDAC6 (Homo sapiens, UniProt Q9UBN7); experiment: HDAC6 inhibitory activity (IC50); type: biochemical
T1 sequence (Q9UBN7 1-1215): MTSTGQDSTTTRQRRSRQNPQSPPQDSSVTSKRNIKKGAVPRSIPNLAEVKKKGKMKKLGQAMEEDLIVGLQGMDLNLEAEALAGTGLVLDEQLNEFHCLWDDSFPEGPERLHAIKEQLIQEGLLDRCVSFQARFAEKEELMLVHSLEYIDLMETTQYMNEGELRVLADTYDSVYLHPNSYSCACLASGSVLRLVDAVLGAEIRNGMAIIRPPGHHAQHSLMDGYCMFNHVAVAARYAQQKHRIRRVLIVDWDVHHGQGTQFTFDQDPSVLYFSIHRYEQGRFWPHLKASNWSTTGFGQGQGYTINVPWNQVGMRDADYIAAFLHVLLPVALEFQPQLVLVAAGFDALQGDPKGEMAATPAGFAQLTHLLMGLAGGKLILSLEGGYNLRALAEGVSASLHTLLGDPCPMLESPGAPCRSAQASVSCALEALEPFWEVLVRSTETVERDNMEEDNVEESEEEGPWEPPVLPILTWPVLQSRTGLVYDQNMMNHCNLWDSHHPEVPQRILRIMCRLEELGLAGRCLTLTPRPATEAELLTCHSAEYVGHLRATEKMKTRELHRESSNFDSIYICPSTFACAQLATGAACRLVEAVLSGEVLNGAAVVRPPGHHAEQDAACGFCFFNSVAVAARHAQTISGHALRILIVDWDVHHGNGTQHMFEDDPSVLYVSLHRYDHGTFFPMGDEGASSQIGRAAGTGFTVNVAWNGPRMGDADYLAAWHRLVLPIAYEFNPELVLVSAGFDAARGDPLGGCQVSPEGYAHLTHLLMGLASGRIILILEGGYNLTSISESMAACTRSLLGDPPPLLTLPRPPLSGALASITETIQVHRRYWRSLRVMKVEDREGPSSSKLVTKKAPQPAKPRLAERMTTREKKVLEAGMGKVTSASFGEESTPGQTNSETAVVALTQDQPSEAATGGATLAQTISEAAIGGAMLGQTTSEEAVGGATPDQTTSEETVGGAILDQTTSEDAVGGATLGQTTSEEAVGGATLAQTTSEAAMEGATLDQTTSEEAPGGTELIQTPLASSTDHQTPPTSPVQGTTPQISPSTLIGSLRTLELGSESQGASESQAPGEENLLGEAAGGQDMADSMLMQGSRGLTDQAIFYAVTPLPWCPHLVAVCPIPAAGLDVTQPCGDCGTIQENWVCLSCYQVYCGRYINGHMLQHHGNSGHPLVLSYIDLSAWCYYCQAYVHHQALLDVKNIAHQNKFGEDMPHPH
Procedure: as §1

HDAC6 [2] = target: T1, HDAC6; experiment: Western blot for acetylated alpha-tubulin (HDAC6 inhibition in cells); type: cell-based; details: 10 or 20 um (FIG. 8A)
[3] = system: STAT3 acetylation in MM.1S cells; experiment: Immunoprecipitation/immunoblot of STAT3 acetylation; type: cell-based, human; details: 20 μM, 18 hours (FIG. 6H)
Procedure: Whole-cell lysates were incubated with anti-STAT3, -JAK2, and -green fluorescent protein (GFP) Abs for 2 hours at 4° C., and then incubated with Protein A/G PLUS-Agarose® (Santa Cruz Biotechnology) overnight at 4° C. Anti-GFP Ab served as a control. Immune complexes were analyzed by immunoblotting with anti-STAT3, -JAK2, -acetylated-Lysine, and -phosphorylated-tyrosine Abs. […] Whole cell lysates were immunoprecipitated with anti-STAT3 Ab. Immunoprecipitates were then subjected to SDS-PAGE and immunoblotted with anti-Ac-K and -STAT3 Abs.

PBMCs = experiment: MTT growth assay in normal donor PBMCs; type: cell-based, human; details: 7.5, 15, 30 μM, 72 hours, MTT (FIG. 6C)
Procedure: BM specimens were obtained from patients with MM, and mononuclear cells (MNCs) were separated by Ficoll-Hipaque density sedimentation. Primary CD138+ plasma cells from MM patients were obtained using negative selection, as in previous studies. […] CD138-BMMNCs were used to establish long-term BMSC cultures, as previously described. […] Peripheral blood mononuclear cells were collected from healthy volunteers to obtain mononuclear cells (PBMCs). All procedures were performed with IRB-approved (Dana-Farber Cancer Institute) protocols and informed consent, and in accordance with the Declaration of Helsinki protocol. […] Cell growth was then assessed by MTT assay. Data represents mean±SD from triplicates cultures (FIG. 6B). […] Cell growth was assessed by MTT assay. The data represents mean±SD from triplicate cultures (FIG. 6C).

HDAC3, sequence (O15379 whole entry): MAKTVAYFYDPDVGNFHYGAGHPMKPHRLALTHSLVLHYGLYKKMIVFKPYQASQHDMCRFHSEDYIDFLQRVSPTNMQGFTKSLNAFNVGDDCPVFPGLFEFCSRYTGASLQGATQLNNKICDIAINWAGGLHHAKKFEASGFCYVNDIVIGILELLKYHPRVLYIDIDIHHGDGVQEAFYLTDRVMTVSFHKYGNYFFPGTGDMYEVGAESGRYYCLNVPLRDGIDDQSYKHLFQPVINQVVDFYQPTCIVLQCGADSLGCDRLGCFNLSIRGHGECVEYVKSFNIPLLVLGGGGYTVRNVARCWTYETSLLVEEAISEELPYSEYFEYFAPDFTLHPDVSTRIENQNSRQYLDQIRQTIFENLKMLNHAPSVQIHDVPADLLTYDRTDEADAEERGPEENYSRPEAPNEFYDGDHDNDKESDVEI
HDAC3, sequence (Q9Y618 395-489 partner limits assumed): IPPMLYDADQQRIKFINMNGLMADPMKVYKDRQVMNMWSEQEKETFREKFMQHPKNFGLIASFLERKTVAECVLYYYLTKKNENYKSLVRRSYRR

Compound: Nc1ccccc1NC(=O)c1cnccn1 [Compound 10, N-(2-aminophenyl)pyrazine-2-carboxamide]
- IC50 (HDAC3; Example 8, read-out: HDAC3 IC50): 289 nM
- IC50 (HDAC3; Table 2, read-out: HDAC3): 140 nM
- CI (combination index) (RPMI8226 cells; BG45 5 μM + bortezomib 2 nM): 1.04
- CI (combination index) (RPMI8226 cells; BG45 5 μM + bortezomib 3 nM): 0.83
- CI (combination index) (RPMI8226 cells; BG45 5 μM + bortezomib 4 nM): 0.84
- CI (combination index) (RPMI8226 cells; BG45 10 μM + bortezomib 2 nM): 1.19
- CI (combination index) (RPMI8226 cells; BG45 10 μM + bortezomib 3 nM): 0.78
- CI (combination index) (RPMI8226 cells; BG45 10 μM + bortezomib 4 nM): 0.77
- CI (combination index) (RPMI8226 cells; BG45 20 μM + bortezomib 2 nM): 0.91
- CI (combination index) (RPMI8226 cells; BG45 20 μM + bortezomib 3 nM): 0.67
- CI (combination index) (RPMI8226 cells; BG45 20 μM + bortezomib 4 nM): 0.63
- bortezomib-induced cytotoxicity (RPMI8226 cells; RPMI8226, bortezomib 2-4 nM + 5, 10, 20 μM Compound 10, 24 h (FIG. 7D)): synergistically enhanced bortezomib-induced cytotoxicity
- p-ERK1/2 (pERK1/2 (Thr202/204)): without affecting p-ERK1/2
- IC50 (HDAC6 [1]; Table 2, read-out: HDAC6): 79000 nM
- IC50 (HDAC6 [1]; Table 3, read-out: IC50 against the deacetylase activity of HDAC6): > 20000 nM
- inhibition of HDAC6 by acetylated alpha-tubulin Western blot (HDAC6 [2]): did not inhibit HDAC6
- acetylation of STAT3 [3]: increased acetylation of STAT3
- growth of normal donor PBMCs (PBMCs): without affecting normal donor PBMCs
